According to article PMC7445743 (Journal of Medicinal Chemistry, 2020):
Counter-ions that a name gives are not always drawn.

Assays:
[1] = molecular target: T1, PKNB(M.tuberculosis) (Mycobacterium tuberculosis, UniProt P9WI81); experiment: KINOMEscan; assay type: binding
T1 construct: purchased DiscoverX (Eurofins) KINOMEscan scanMAX; first lines in-house DSF / ADP-Glo

[2] = test system: diet induced obesity mouse model; experiment: OGTT in DIO mice, chronic (14 day) dosing study; assay type: in vivo, male C57Bl/6J mice; conditions: twice daily for 14 days (25 mg/kg)
Method: Upon completion of the OGTT, all animals were singly housed with food provided as above for 2 weeks prior to the onset of the baseline phase of the chronic study. Upon single housing after the OGTT, mice were placed on a reverse-phase light–dark cycle (lights off 09:30–17:30). Following this period, the animals underwent a 5-day baseline phase where they were dosed twice daily with vehicle at approximately 08:45 and 16:45 each day. Toward the end of the baseline phase mice were reallocated to dosing groups (8 animals per group) such that groups within the study were balanced as closely as possible for body weight, food and water intake, and previous treatment. From day 1 onward, mice were dosed orally twice daily with 25 mg/kg 18 formulated in a vehicle of DMSO (10% final volume) and 20% (2-hydroxypropyl)-β-cyclodextrin (90% final volume) on days 1–6 and 1% methyl cellulose at 5 mL/kg on subsequent days or twice daily orally with vehicle alone or subcutaneously with 0.1 mg/kg liraglutide (Bachem) formulated in pH 7.4 phosphate buffer solution. Oral dosing began at approximately 08:45 and 16:45, with subcutaneous dosing at 08:45 only. […] Plasma glucose and insulin data from the OGTTs were analyzed by robust regression with treatment as a factor and bleeding order and day 1 body weight as covariates. […]

[3] = test system: kinase panel (468 Assays Tested); experiment: Pan-kinome selectivity, competitive binding assay (KINOMEscan); conditions: for S-Score(35): 1 μM
[4] = Microsome metabolism (MICs)
[5] = Microsome metabolism (MICs); remark: listed apart in the source
[6] = Microsome metabolism (MICs); remark: listed apart in the source
[7] = test system: diet induced obesity mouse model; experiment: OGTT in DIO mice, acute dosing study; assay type: in vivo, male C57Bl/6J mice; conditions: single oral dose of 25 or 50 mg/kg 4 h prior to OGTT, vs vehicle
Method: Animals were allocated to dosing groups (6 mice per group) such that groups were balanced as closely as possible for mean body weight. The day prior to the OGTT, all animals were deprived of food (but not water) beginning approximately 16:45. The following morning, the mice were dosed with vehicle or either 10 mg/kg, 25 mg/kg, or 50 mg/kg 18 formulated in a vehicle of DMSO (10% final volume) and 20% (2-hydroxypropyl)-β-cyclodextrin (90% final volume) by the oral route (beginning at 08:45). Four hours after dosing, a blood sample was taken (B1), and 3 min later glucose was administered (2 g/kg orally). Further blood samples were taken 10, 30, 60, and 90 min after glucose administration. Between blood sampling, animals were returned to the home cage with free access to water (but not food). Blood samples (approximately 30 μL) were collected into lithium heparinized tubes (Sarstedt Microvette CB300LH), and plasma was separated by centrifugation to produce a single aliquot of plasma, which was frozen (approximately −80 °C) and subsequently assayed for glucose (in duplicate; Thermoelectron Infinity glucose reagent TR15498) and insulin (single replicate; Alpco mouse ultrasensitive insulin kit 80, INSMSU-E10).

[8] = molecular target: T2, SYK (Homo sapiens, UniProt P43405); conditions: supplement CSV
[9] = molecular target: T2, SYK; experiment: biochemical; conditions: read-out: Tm shift SYK
[10] = molecular target: CAMK1G (Homo sapiens, UniProt Q96NX5); conditions: supplement CSV
[11] = molecular target: CAMK2A (Homo sapiens, UniProt Q9UQM7); conditions: supplement CSV
[12] = Hepatocyte metabolism (Heps); assay type: in vitro ADME
[13] = in vitro; conditions: rat, plasma
[14] = in vitro; conditions: human, plasma
[15] = test system: NGS mice; experiment: Tolerability study in NGS mice; assay type: in vivo; conditions: 40 mg/kg once daily for 21 days, 50:45:5 PEG400/water/ethanol
[16] = molecular target: PAK4 (Homo sapiens, UniProt O96013); conditions: supplement CSV
[17] = in vivo; conditions: male, Crl:CD Sprague-Dawley, rat, iv, 2 mg/kg
[18] = in vitro; conditions: mouse, plasma

CAMK1G, sequence (Q96NX5 whole entry): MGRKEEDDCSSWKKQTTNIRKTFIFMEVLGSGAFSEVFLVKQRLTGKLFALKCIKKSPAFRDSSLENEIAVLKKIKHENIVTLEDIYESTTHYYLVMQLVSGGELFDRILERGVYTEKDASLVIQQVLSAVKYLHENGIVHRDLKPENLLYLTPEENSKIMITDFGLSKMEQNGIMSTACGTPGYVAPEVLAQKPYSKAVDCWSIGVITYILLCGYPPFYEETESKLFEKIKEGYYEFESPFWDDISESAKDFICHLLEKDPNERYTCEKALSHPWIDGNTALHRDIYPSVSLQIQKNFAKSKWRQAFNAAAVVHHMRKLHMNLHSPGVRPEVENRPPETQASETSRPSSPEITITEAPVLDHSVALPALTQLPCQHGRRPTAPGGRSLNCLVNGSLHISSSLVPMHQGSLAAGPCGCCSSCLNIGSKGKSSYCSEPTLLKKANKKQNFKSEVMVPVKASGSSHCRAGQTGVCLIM
T1 sequence (P9WI81 whole entry): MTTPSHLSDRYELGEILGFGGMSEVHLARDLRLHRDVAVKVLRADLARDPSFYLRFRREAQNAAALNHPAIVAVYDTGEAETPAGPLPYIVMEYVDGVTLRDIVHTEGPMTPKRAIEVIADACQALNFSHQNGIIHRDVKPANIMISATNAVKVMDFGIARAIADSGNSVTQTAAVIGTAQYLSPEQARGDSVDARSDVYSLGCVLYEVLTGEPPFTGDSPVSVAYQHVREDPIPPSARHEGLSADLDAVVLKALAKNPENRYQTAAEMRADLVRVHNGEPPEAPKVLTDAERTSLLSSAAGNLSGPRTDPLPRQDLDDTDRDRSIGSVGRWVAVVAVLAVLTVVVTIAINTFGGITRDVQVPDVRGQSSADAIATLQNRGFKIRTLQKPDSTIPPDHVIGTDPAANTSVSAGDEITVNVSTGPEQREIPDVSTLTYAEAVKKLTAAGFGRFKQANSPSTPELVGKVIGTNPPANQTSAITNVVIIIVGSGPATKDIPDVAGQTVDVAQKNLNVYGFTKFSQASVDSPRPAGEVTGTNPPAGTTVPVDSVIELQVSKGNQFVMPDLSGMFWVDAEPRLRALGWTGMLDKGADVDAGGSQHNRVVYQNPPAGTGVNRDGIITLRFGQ
PAK4, sequence (O96013 whole entry): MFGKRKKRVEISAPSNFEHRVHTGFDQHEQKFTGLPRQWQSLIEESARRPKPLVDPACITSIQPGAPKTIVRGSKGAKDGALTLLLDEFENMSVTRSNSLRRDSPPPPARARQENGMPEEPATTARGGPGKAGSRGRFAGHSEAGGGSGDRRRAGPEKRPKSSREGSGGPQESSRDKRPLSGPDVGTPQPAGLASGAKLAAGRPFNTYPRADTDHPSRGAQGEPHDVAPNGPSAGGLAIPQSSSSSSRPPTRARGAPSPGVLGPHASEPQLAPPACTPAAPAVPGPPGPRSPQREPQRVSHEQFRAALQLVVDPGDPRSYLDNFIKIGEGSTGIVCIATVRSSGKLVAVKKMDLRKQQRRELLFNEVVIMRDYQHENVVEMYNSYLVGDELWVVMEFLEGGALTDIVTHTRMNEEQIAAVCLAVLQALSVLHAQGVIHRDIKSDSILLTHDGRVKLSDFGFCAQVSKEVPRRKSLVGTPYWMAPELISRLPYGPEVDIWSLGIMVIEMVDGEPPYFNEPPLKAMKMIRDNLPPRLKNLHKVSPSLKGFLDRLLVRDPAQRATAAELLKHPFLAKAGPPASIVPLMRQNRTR
CAMK2A, sequence (Q9UQM7 whole entry): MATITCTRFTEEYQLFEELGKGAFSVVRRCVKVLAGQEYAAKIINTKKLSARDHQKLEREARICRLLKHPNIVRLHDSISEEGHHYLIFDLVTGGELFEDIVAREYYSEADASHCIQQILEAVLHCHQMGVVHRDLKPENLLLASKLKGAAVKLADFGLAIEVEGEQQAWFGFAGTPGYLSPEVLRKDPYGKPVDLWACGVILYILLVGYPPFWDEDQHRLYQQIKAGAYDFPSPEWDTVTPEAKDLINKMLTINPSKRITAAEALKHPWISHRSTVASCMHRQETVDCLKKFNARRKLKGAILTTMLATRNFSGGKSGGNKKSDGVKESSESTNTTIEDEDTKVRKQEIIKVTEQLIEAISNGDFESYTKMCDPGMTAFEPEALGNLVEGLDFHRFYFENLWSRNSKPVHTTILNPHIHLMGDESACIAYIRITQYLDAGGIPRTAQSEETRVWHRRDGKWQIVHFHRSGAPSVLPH

SMILES | remaining binding at 1 µM [1] | baseline glucose and insulin levels, peak glucose following OGTT [2] | glucose AUCB2 [2] | S-Score(35) [3] | Interactions Mapped ([3]; 468 Assays Tested) | rat MICs [4] | mouse MICs [5] | human MICs [6] | glucose control and insulin sensitivity in OGTT [7] | SYK Tm [8] | ΔTm at 10 µM [9] | CAMK1G Tm [10] | CAMK2A Tm [11] | human Heps [12] | fraction unbound [13] | fraction unbound [14] | tolerability [15] | PAK4 Tm [16] | clearance [17] | fraction unbound [18]
CC(C)(C#N)c1cc(Nc2nc(N3CCC[C@H](N)C3)ncc2C(N)=O)cc(C(C)(C)C#N)c1 [Compound 18, (S)-2-(3-Aminopiperidin-1-yl)-4-((3,5-bis(2-cyanopropan-2-yl)phenyl)amino)pyrimidine-5-carboxamide Hydrochloride] | 84% | reduced baseline glucose and insulin levels, as well as reduced peak glucose levels | no effect | 0.03 | 23 | < 1 μL·min^–1·mg^–1 | 15 μL·min^–1·mg^–1 | 13 μL·min^–1·mg^–1 | improved glucose control and increased insulin sensitivity | – | – | – | – | – | – | – | – | – | – | –
NC(=O)c1cnc(N2CCC[C@@H](N)C2)nc1Nc1cccc(C(F)(F)F)c1 [Compound 7, (R)-2-(3-Aminopiperidin-1-yl)-4-((3-(trifluoromethyl)phenyl)amino)pyrimidine-5-carboxamide Hydrochloride] | – | – | – | – | – | – | – | – | – | 6.82 0C | 6.82 °C | 6.58 0C | 1.17 0C | – | – | – | – | – | – | –
CC(C)c1cc(Nc2nc(N3CCC[C@H](N)C3)ncc2C(N)=O)cc(C(C)C)n1 [Compound 19, (S)-2-(3-Aminopiperidin-1-yl)-4-((2,6-diisopropylpyridin-4-yl)amino)pyrimidine-5-carboxamide] | 83% | – | – | 0.03 | – | 3 μL·min^–1·mg^–1 | 6 μL·min^–1·mg^–1 | 7 μL·min^–1·mg^–1 | – | – | – | 16.35 0C | – | 19 μL·min^–1 per 10^6 cells | 0.08 | 0.11 | no observable adverse effects | 3.31 0C | 36.5 mL/min/kg | 0.06
